Paper doi:10.1101/2024.03.05.583521v1 (biorxiv, 2024)
Each block holds one molecule with its values, some of them ahead of it.

Experiments:
PIB-1 [1] = target: T1, PIB-1 (Pseudomonas aeruginosa, UniProt Q9HT32); test: intrinsic protein fluorescence quenching; type: binding
T1 sequence (Q9HT32 28-414): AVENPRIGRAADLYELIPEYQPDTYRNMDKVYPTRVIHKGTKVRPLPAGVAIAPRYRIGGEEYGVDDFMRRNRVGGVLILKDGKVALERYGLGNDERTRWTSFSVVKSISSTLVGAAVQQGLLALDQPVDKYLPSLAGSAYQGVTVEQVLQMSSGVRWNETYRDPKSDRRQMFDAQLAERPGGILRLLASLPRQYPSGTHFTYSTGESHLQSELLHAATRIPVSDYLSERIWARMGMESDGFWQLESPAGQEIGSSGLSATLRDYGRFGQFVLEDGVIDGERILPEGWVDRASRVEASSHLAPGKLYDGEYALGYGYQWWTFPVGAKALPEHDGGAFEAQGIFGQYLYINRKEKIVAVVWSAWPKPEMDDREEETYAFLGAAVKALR

PIB-1 [2] = target: T1, PIB-1; test: isothermal titration calorimetry; type: binding
purified protein = substrate: O=C(Cc1cccs1)N[C@@H]1C(=O)N2C(C(=O)O)=C(/C=C/c3ccc([N+](=O)[O-])cc3[N+](=O)[O-])CS[C@H]12; test: purified protein; conditions: no added metal, 10 mM Na-HEPES pH 7.5, 100 mM NaCl, 37 °C

Kd (PIB-1 [1]): 74.8 ± 10.3 µM
Molecule: C[C@@H](O)[C@H]1C(=O)N2C(C(=O)O)=C(S[C@@H]3CN[C@H](C(=O)N(C)C)C3)[C@H](C)[C@H]12 [meropenem]

Kd (PIB-1 [2]): 79.8 ± 5.9 µM
Molecule: C[C@@H](O)[C@H]1C(=O)N2C(C(=O)O)=C(SCCN=CN)C[C@H]12 [imipenem]

B1: PIB-1 (Pseudomonas aeruginosa PAO1) (protein)
chain: T1 sequence (Q9HT32 28-414)
Km (purified protein): 95.3 ± 8.9 µM | kcat (purified protein): 0.0041 ± 0.0005 s⁻¹
